Test results taken from the CheMixHub viscosity set.

Assay: xn = mol fraction of the nth substance listed

O=S1(=O)CCCC1 + OCCOCCO
303.15 K, 101 kPa
Settings | viscosity [mPa·s]
x1 = 0.0517 | 20.1
x1 = 0.0984 | 18.62
x1 = 0.206 | 15.85
x1 = 0.2958 | 13.99
x1 = 0.3988 | 12.28
x1 = 0.4469 | 11.69
x1 = 0.4997 | 11.11
x1 = 0.5346 | 10.81
x1 = 0.603 | 10.31
x1 = 0.7047 | 9.829
x1 = 0.7896 | 9.536
x1 = 0.8987 | 9.51
x1 = 0.9348 | 9.614

O=S1(=O)CCCC1 + OCCOCCOCCO
303.15 K, 101 kPa
Settings | viscosity [mPa·s]
x1 = 0.0435 | 27.75
x1 = 0.0985 | 25.88
x1 = 0.2083 | 22.54
x1 = 0.2999 | 20.02
x1 = 0.3966 | 17.63
x1 = 0.4473 | 16.49
x1 = 0.4985 | 15.45
x1 = 0.5498 | 14.47
x1 = 0.5855 | 13.85
x1 = 0.6913 | 12.24
x1 = 0.8065 | 10.9
x1 = 0.8984 | 10.18
x1 = 0.9458 | 10.08

Cc1ccc(O)cc1 + Oc1ccccc1
298.15 K, 101 kPa
Settings | viscosity [mPa·s]
x2 = 0.1598 | 13.27
x2 = 0.3191 | 12.18
x2 = 0.3851 | 11.75
x2 = 0.5218 | 10.99
x2 = 0.6385 | 10.42
x2 = 0.7587 | 9.835
x2 = 0.8783 | 9.463

O=S(=O)(Cl)Cl + [Cl-].[Cl-].[Cl-].[Cl-].[Sn+4]
298.15 K, 101 kPa
Settings | viscosity [mPa·s]
x1 = 0.268 | 0.7739
x1 = 0.563 | 0.7396
x1 = 0.795 | 0.7144

CCC(C)O (centres undefined) + c1ccccc1
303 K, 101.3 kPa
Settings | viscosity [mPa·s]
x2 = 0.1032 | 1.95
x2 = 0.2077 | 1.52
x2 = 0.3084 | 1.204
x2 = 0.4086 | 0.9692
x2 = 0.511 | 0.8012
x2 = 0.5989 | 0.6995
x2 = 0.7027 | 0.6211
x2 = 0.7981 | 0.5854
x2 = 0.8973 | 0.5709

Cc1ccc(O)cc1 + c1ccccc1
308.15 K, 101 kPa
Settings | viscosity [mPa·s]
x1 = 0.0751 | 0.6025
x1 = 0.1778 | 0.749
x1 = 0.292 | 0.9762
x1 = 0.4109 | 1.327
x1 = 0.532 | 1.87
x1 = 0.6653 | 2.706
x1 = 0.7851 | 4.175
x1 = 0.8374 | 4.963
x1 = 0.9459 | 7.462

Cc1cccc(C)c1 + c1ccccc1
viscosity [mPa·s], 101 kPa
Settings | x1 = 0.0977 | x1 = 0.2098 | x1 = 0.2979 | x1 = 0.4028 | x1 = 0.5018 | x1 = 0.5981 | x1 = 0.7046 | x1 = 0.8007 | x1 = 0.898
303 K | 0.5478 | 0.5424 | 0.5393 | 0.5373 | 0.5342 | 0.5374 | 0.536 | 0.5395 | 0.5417
313 K | 0.4793 | 0.4781 | 0.4769 | 0.4767 | 0.4789 | 0.4796 | 0.4818 | 0.4843 | 0.4875
323 K | 0.4302 | 0.4308 | 0.4285 | 0.4291 | 0.4307 | 0.4342 | 0.4361 | 0.4397 | 0.443

O=S(=O)(Cl)Cl + c1ccccc1
298.15 K, 101 kPa
Settings | viscosity [mPa·s]
x1 = 0.176 | 0.6172
x1 = 0.43 | 0.6463
x1 = 0.699 | 0.6673
x1 = 0.734 | 0.6691
x1 = 0.845 | 0.6757

O=S1(=O)CCCC1 + c1ccccc1
viscosity [mPa·s]
Settings | 303.15 K | 313.15 K | 323.15 K
101 kPa, x1 = 0.0944 | 0.7133 | 0.6194 | 0.5441
101 kPa, x1 = 0.1855 | 0.8992 | 0.7737 | 0.6751
101 kPa, x1 = 0.2522 | 1.074 | 0.9112 | 0.7919
101 kPa, x1 = 0.2849 | 1.162 | 0.9889 | 0.8556
101 kPa, x1 = 0.3829 | 1.504 | 1.267 | 1.085
101 kPa, x1 = 0.4835 | 1.976 | 1.648 | 1.396
101 kPa, x1 = 0.5905 | 2.694 | 2.202 | 1.855
101 kPa, x1 = 0.6841 | 3.563 | 2.879 | 2.388
101 kPa, x1 = 0.7917 | 5.014 | 3.996 | 3.267
101 kPa, x1 = 0.8956 | 7.129 | 5.619 | 4.505
101.3 kPa, x2 = 0.1417 | 6.075 | – | 3.928
101.3 kPa, x2 = 0.2777 | 4.003 | – | 2.676
101.3 kPa, x2 = 0.3972 | 2.826 | – | 1.95
101.3 kPa, x2 = 0.5062 | 2.066 | – | 1.468
101.3 kPa, x2 = 0.6063 | 1.571 | – | 1.137
101.3 kPa, x2 = 0.6976 | 1.2 | – | 0.8791
101.3 kPa, x2 = 0.7823 | 0.9625 | – | 0.717
101.3 kPa, x2 = 0.8602 | 0.786 | – | 0.5933
101.3 kPa, x2 = 0.9327 | 0.652 | – | 0.5029

Cc1ccc(O)cc1 + c1ccncc1
viscosity [mPa·s], 101 kPa
Settings | x1 = 0.163 | x1 = 0.2353 | x1 = 0.3282 | x1 = 0.3907 | x1 = 0.4666 | x1 = 0.527 | x1 = 0.6065 | x1 = 0.6911 | x1 = 0.7846 | x1 = 0.881
293.15 K | 1.451 | 1.808 | 2.535 | 3.105 | 4.215 | 5.315 | 7.365 | 10.04 | 13.24 | 16.16
303.15 K | 1.363 | 1.628 | 2.115 | 2.565 | 3.31 | 4.08 | 5.265 | 6.635 | 7.97 | 9.26
313.15 K | 1.139 | 1.37 | 1.727 | 2.065 | 2.6 | 3.115 | 3.83 | 4.66 | 5.415 | 6.02
